Results as given in publication PMC6976587, “Conversion of Broad-Spectrum Antimicrobial Peptides into Species-Specific Antimicrobials Capable of Precisely Targeting Pathogenic Bacteria” (Scientific Reports, 2020).
Values after ≈ are worked out from the molar mass of the structure shown. Residues, ends and D or L forms follow the SMILES beside them.

How the values were obtained:
S. aureus ATCC 29213 = format: cell-based, Staphylococcus aureus; settings: ATCC 29213, 16 h
Method: (§1) The antimicrobial activities of the peptides were investigated against the following bacteria: E. faecalis ATCC 29212, S. epidermidis ATCC 12228, S. aureus ATCC 29213, E. coli ATCC 25922, S. typhimurium […] and S. Pullorum […]. The MICs of the peptides were determined using a modified standard microtiter dilution method as described previously[29],[38]. Briefly, the microbial strains were cultured in MHB at 37 °C to reach mid-log phase and then diluted to 0.5-1×10^6 CFU/ml. 50 μL volumes of bacteria suspension were incubated in sterile 96-well plates with 50 μl of 2-fold serially diluted peptides at different concentrations (0.25-128 μM). Cultures with or without bacterial cells was employed as positive and negative controls, respectively. […] Each measurement was reproduced at least four times using three replicates.

[1] = tested on: S. epidermidis ATCC 12228; format: cell-based, Staphylococcus epidermidis; settings: ATCC 12228, 16 h
Method: as §1

S. typhimurium C7731 = format: cell-based, Salmonella typhimurium; settings: C7731, 16 h
Method: as §1

S. Pullorum C7913 = format: cell-based, Salmonella Pullorum; settings: C7913, 16 h
Method: as §1

E. coli ATCC 25922 = format: cell-based, Escherichia coli; settings: ATCC 25922, 16 h
Method: as §1

E. faecalis ATCC 29212 = format: cell-based, Enterococcus faecalis; settings: ATCC 29212, 16 h
Method: as §1

| SMILES | MIC (μM) Gram-positive S. aureus 1005 (S. aureus ATCC 29213) | MIC (μM) Gram-positive S. epidermidis 7913 [1] | MIC (μM) Gram-negative S. typhimurium 29213 (S. typhimurium C7731) | MIC (μM) Gram-negative S. Pullorum 43300 (S. Pullorum C7913) | MIC (μM) Gram-negative E. coli 12228 (E. coli ATCC 25922) | MIC (μM) Gram-positive E. faecalis 25922 (E. faecalis ATCC 29212) |
| --- | --- | --- | --- | --- | --- | --- |
| CC(C)C[C@H](NC(=O)[C@@H](NC(=O)[C@@H](NC(=O)[C@@H](N)CC(C)C)C(C)C)[C@@H](C)O)C(=O)N[C@H](C(=O)N[C@@H](Cc1ccccc1)C(=O)N[C@H](C(=O)O)C(C)C)C(C)C [cCF10, reference compound] (H-LVTLVFV-OH) | >128 µM | >128 µM | >128 µM | >128 µM | >128 µM | >128 µM |
| CC(C)C[C@H](NC(=O)[C@H](CCCNC(=N)N)NC(=O)CNC(=O)CNC(=O)[C@@H](N)CCCNC(=N)N)C(=O)N[C@H]1CSSC[C@@H](C(=O)N[C@H](C(=O)NCC(=O)N[C@@H](CCCNC(=N)N)C(N)=O)C(C)C)NC(=O)[C@H](C(C)C)NC(=O)[C@@H]2CSSC[C@H](NC(=O)[C@H](Cc3ccc(O)cc3)NC1=O)C(=O)N[C@@H](CCCNC(=N)N)C(=O)N[C@@H](CCCNC(=N)N)C(=O)N[C@@H](CCCNC(=N)N)C(=O)N[C@@H](Cc1ccccc1)C(=O)N2 [PG-1, reference compound] | 8 µM (≈ 17.2 µg/mL) | 16 µM (≈ 34.5 µg/mL) | 8 µM (≈ 17.2 µg/mL) | 8 µM (≈ 17.2 µg/mL) | 2 µM (≈ 4.31 µg/mL) | 4 µM (≈ 8.62 µg/mL) |
| NCCCC[C@H](NC(=O)CNC(=O)[C@H](CC(N)=O)NC(=O)[C@H](CCC(=O)O)NC(=O)[C@H](Cc1c[nH]c2ccccc12)NC(=O)[C@H](CCCCN)NC(=O)[C@H](Cc1c[nH]c2ccccc12)NC(=O)[C@H](CCCCN)NC(=O)[C@@H](N)Cc1c[nH]c2ccccc12)C(=O)N[C@@H](Cc1c[nH]c2ccccc12)C(=O)N[C@@H](CCCCN)C(=O)N[C@@H](Cc1c[nH]c2ccccc12)C(=O)N[C@@H](CCC(N)=O)C(=O)N[C@@H](Cc1c[nH]c2ccccc12)C(=O)O [C3] (H-WKWKWENGKWKWQW-OH) | >128 µM | >128 µM | 64 µM (≈ 133 µg/mL) | 16 µM (≈ 33.2 µg/mL) | 32 µM (≈ 66.4 µg/mL) | >128 µM |
| CC(C)C[C@H](NC(=O)[C@@H](NC(=O)[C@@H](NC(=O)[C@@H](N)CC(C)C)C(C)C)[C@@H](C)O)C(=O)N[C@H](C(=O)N[C@@H](Cc1ccccc1)C(=O)N[C@H](C(=O)NCC(=O)NCC(=O)NCC(=O)N[C@@H](Cc1c[nH]c2ccccc12)C(=O)N[C@@H](CCCCN)C(=O)N[C@@H](Cc1c[nH]c2ccccc12)C(=O)N[C@@H](CCCCN)C(=O)N[C@@H](Cc1c[nH]c2ccccc12)C(=O)N[C@@H](CCCCN)C(=O)N[C@@H](CC(N)=O)C(=O)NCC(=O)N[C@@H](CCCCN)C(=O)N[C@@H](Cc1c[nH]c2ccccc12)C(=O)N[C@@H](CCCCN)C(=O)N[C@@H](Cc1c[nH]c2ccccc12)C(=O)N[C@@H](CCCCN)C(=O)N[C@@H](Cc1c[nH]c2ccccc12)C(=O)O)C(C)C)C(C)C [cCF10-C6] (H-LVTLVFVGGGWKWKWKNGKWKWKW-OH) | 32 µM (≈ 96.6 µg/mL) | 32 µM (≈ 96.6 µg/mL) | >128 µM | 16 µM (≈ 48.3 µg/mL) | 4 µM (≈ 12.1 µg/mL) | 4 µM (≈ 12.1 µg/mL) |
| CC(C)C[C@H](NC(=O)CNC(=O)CNC(=O)CNC(=O)[C@H](Cc1c[nH]c2ccccc12)NC(=O)[C@H](CCCCN)NC(=O)[C@H](Cc1c[nH]c2ccccc12)NC(=O)[C@H](CCCCN)NC(=O)[C@H](Cc1c[nH]c2ccccc12)NC(=O)[C@H](CCCCN)NC(=O)CNC(=O)[C@H](CC(N)=O)NC(=O)[C@H](CCCCN)NC(=O)[C@H](Cc1c[nH]c2ccccc12)NC(=O)[C@H](CCCCN)NC(=O)[C@H](Cc1c[nH]c2ccccc12)NC(=O)[C@H](CCCCN)NC(=O)[C@@H](N)Cc1c[nH]c2ccccc12)C(=O)N[C@H](C(=O)N[C@H](C(=O)N[C@@H](CC(C)C)C(=O)N[C@H](C(=O)N[C@@H](Cc1ccccc1)C(=O)N[C@H](C(=O)O)C(C)C)C(C)C)[C@@H](C)O)C(C)C [C6-cCF10] (H-WKWKWKNGKWKWKWGGGLVTLVFV-OH) | 8 µM (≈ 24.1 µg/mL) | 32 µM (≈ 96.6 µg/mL) | >128 µM | 8 µM (≈ 24.1 µg/mL) | 2 µM (≈ 6.04 µg/mL) | 16 µM (≈ 48.3 µg/mL) |
| CC(C)C[C@H](NC(=O)[C@@H](NC(=O)[C@@H](NC(=O)[C@@H](N)CC(C)C)C(C)C)[C@@H](C)O)C(=O)N[C@H](C(=O)N[C@@H](Cc1ccccc1)C(=O)N[C@H](C(=O)NCC(=O)NCC(=O)NCC(=O)N[C@@H](Cc1c[nH]c2ccccc12)C(=O)N[C@@H](CCCCN)C(=O)N[C@@H](Cc1c[nH]c2ccccc12)C(=O)N[C@@H](CCCCN)C(=O)N[C@@H](Cc1c[nH]c2ccccc12)C(=O)N[C@@H](CCC(=O)O)C(=O)N[C@@H](CC(N)=O)C(=O)NCC(=O)N[C@@H](CCCCN)C(=O)N[C@@H](Cc1c[nH]c2ccccc12)C(=O)N[C@@H](CCCCN)C(=O)N[C@@H](Cc1c[nH]c2ccccc12)C(=O)N[C@@H](CCC(N)=O)C(=O)N[C@@H](Cc1c[nH]c2ccccc12)C(=O)O)C(C)C)C(C)C [cCF10-C3] (H-LVTLVFVGGGWKWKWENGKWKWQW-OH) | >128 µM | >128 µM | >128 µM | >128 µM | >128 µM | >128 µM |
| NCCCC[C@H](NC(=O)CNC(=O)[C@H](CC(N)=O)NC(=O)[C@H](CCC(=O)O)NC(=O)[C@H](Cc1c[nH]c2ccccc12)NC(=O)[C@H](CCCCN)NC(=O)[C@H](Cc1c[nH]c2ccccc12)NC(=O)[C@H](CCCCN)NC(=O)[C@@H](N)Cc1c[nH]c2ccccc12)C(=O)N[C@@H](Cc1c[nH]c2ccccc12)C(=O)N[C@@H](CCCCN)C(=O)N[C@@H](Cc1c[nH]c2ccccc12)C(=O)N[C@@H](CCCCN)C(=O)N[C@@H](Cc1c[nH]c2ccccc12)C(=O)O [C4] (H-WKWKWENGKWKWKW-OH) | 32 µM (≈ 66.4 µg/mL) | 32 µM (≈ 66.4 µg/mL) | 32 µM (≈ 66.4 µg/mL) | 8 µM (≈ 16.6 µg/mL) | 2 µM (≈ 4.15 µg/mL) | 64 µM (≈ 133 µg/mL) |
| CC(C)C[C@H](NC(=O)[C@@H](NC(=O)[C@@H](NC(=O)[C@@H](N)CC(C)C)C(C)C)[C@@H](C)O)C(=O)N[C@H](C(=O)N[C@@H](Cc1ccccc1)C(=O)N[C@H](C(=O)NCC(=O)NCC(=O)NCC(=O)N[C@@H](Cc1c[nH]c2ccccc12)C(=O)N[C@@H](CCCCN)C(=O)N[C@@H](Cc1c[nH]c2ccccc12)C(=O)N[C@@H](CCCCN)C(=O)N[C@@H](Cc1c[nH]c2ccccc12)C(=O)N[C@@H](CCC(=O)O)C(=O)N[C@@H](CC(N)=O)C(=O)NCC(=O)N[C@@H](CCCCN)C(=O)N[C@@H](Cc1c[nH]c2ccccc12)C(=O)N[C@@H](CCCCN)C(=O)N[C@@H](Cc1c[nH]c2ccccc12)C(=O)N[C@@H](CCCCN)C(=O)N[C@@H](Cc1c[nH]c2ccccc12)C(=O)O)C(C)C)C(C)C [cCF10-C4] (H-LVTLVFVGGGWKWKWENGKWKWKW-OH) | >128 µM | >128 µM | >128 µM | >128 µM | 64 µM (≈ 193 µg/mL) | 8 µM (≈ 24.2 µg/mL) |
| CC[C@H](C)[C@H](NC(=O)[C@H](Cc1ccccc1)NC(=O)[C@H](CS)NC(=O)[C@@H](NC(=O)[C@H](CO)NC(=O)[C@@H](N)Cc1ccc(O)cc1)[C@@H](C)O)C(=O)N[C@@H](CCSC)C(=O)NCC(=O)NCC(=O)NCC(=O)N[C@@H](Cc1c[nH]c2ccccc12)C(=O)N[C@@H](CCCCN)C(=O)N[C@@H](Cc1c[nH]c2ccccc12)C(=O)N[C@@H](CCCCN)C(=O)N[C@@H](Cc1c[nH]c2ccccc12)C(=O)N[C@@H](CCC(=O)O)C(=O)N[C@@H](CC(N)=O)C(=O)NCC(=O)N[C@@H](CCCCN)C(=O)N[C@@H](Cc1c[nH]c2ccccc12)C(=O)N[C@@H](CCCCN)C(=O)N[C@@H](Cc1c[nH]c2ccccc12)C(=O)N[C@@H](CCCCN)C(=O)N[C@@H](Cc1c[nH]c2ccccc12)C(=O)O [random-C4] (H-YSTCFIMGGGWKWKWENGKWKWKW-OH) | >128 µM | >128 µM | >128 µM | >128 µM | 32 µM (≈ 99 µg/mL) | >128 µM |
